Assay results published in patent US20250326753A1, “DUAL CXCR4-BTK INHIBITORS” (X4 Pharmaceuticals, Inc., priority 2022, published 2025).
Read-outs that look alike come from different tables or passages of the source.

Tests used:
CXCR4 [1] = target: T1, CXCR4 (Homo sapiens, UniProt P61073); assay: Chemokine (CXCL12-AF647) binding inhibition assay, Jurkat cells expressing CXCR4; conditions: CXCL12-AF647 25 ng/ml, read-out: IC50 CXCL-12 binding Jurkat
Method: Jurkat cells expressing CXCR4 were washed once with assay buffer (Hanks' balanced salt solution with 20 mM HEPES buffer and 0.2% bovine serum albumin, pH 7.4) and then incubated for 15 min at room temperature with the test compounds diluted in assay buffer at dose-dependent concentrations. Subsequently, CXCL12-AF647 (25 ng/ml) was added to the compound-incubated cells. The cells were incubated for 30 min at room temperature. Thereafter, the cells were washed twice in assay buffer, fixed in 1% paraformaldehyde in PBS, and analyzed on the FL4 channel of a FACSCalibur flow cytometer equipped with a 635-nm red diode laser (Becton Dickinson, San Jose, CA, USA).
The percentages of inhibition of CXCL12-AF647 binding were calculated according to the formula: [1−((MFI−MFINC)/(MFIPC−MFINC))]×100 where MFI is the mean fluorescence intensity of the cells incubated with CXCL 12-AF647 in the presence of the inhibitor, MFINC is the mean fluorescence intensity measured in the negative control (i.e., autofluorescence of unlabeled cells), and MFIPC is the mean fluorescence intensity of the positive control (i.e., cells exposed to CXCL12-AF647 alone).

[2] = target: T2, BTK (Bruton tyrosine kinase) (Homo sapiens, UniProt Q06187); assay: BTK screening assay (33PanQinase Activity Assay, radiometric); format: biochemical; conditions: Inhibition of BTK, radiometric 33PanQinase Activity Assay, 3 μM ATP, 10 concentrations in singlicate, top 10 μM; read-out: 33PanQinase ® Radiometric IC50
T2 construct: GST or His (the text leaves open which); purchased Reaction Biology Europe GmbH Lot 012,11; host or cells: Sf9 insect cells or E. coli (not resolved)
Method: Inhibition of BTK activity was evaluated using a radiometric protein kinase assay (33PanQinase® Activity Assay) to measure the activity of BTK (Bruton tyrosine kinase).
Kinase assays were performed in 96-well ScintiPlates™ from Perkin Elmer (Boston, MA, USA) in a 50 μL reaction volume. The reaction cocktail was pipetted in four steps in the following order: 10 μL of non-radioactive ATP solution (in H2O); 25 μL of assay buffer/[γ-^33P]-ATP mixture; 5 μL of compound test sample in 10% DMSO; 10 μL of enzyme/substrate mixture.
BTK kinase was expressed in Sf9 insect cells or in E. coli as recombinant GST-fusion proteins or His-tagged proteins, either as full-length or enzymatically active fragments from human cDNAs, and purified by either GSH-affinity chromatography or immobilized metal. Purity was examined by SDS-PAGE/Coomassie staining, and identity confirmed by mass spectroscopy.
The reaction cocktails were incubated at 30° C. for 60 minutes. The reaction was stopped with 50 μL of 2% (v/v) H3PO4, plates were aspirated and washed two times with 200 μL 0.9% (w/v) NaCl. Incorporation of ^33Pi (counting of “cpm”) was determined with a microplate scintillation counter (Microbeta, Wallac).
The median value of the counts in wells containing assay buffer without enzyme, and without test compound was defined as “low control.” This value reflects unspecific binding of radioactivity to the plate in the absence of a protein kinase but in the presence of the substrate. The median value of the counts in wells containing assay buffer without test compound was defined as the “high control,” i.e. full activity in the absence of any inhibitor. The difference between high and low control was taken as 100% activity. Residual activity (in %) was calculated using the following formula: Res. Activity (%)=100×[(cpm of compound-low control)/(high control-low control)].
The fitting method used was a least-squares fit.

CXCR4 [3] = target: T1, CXCR4; assay: Intracellular CXCL-12-induced calcium mobilization assay (FLIPR), U87.CXCR4 cells; format: cell-based; set-up: expressed in transfected cells; host or cells: U87 (U87.CXCR4); conditions: CXCL-12 25-50 ng/ml, read-out: IC50 CXCL-12 Ca2+ flux U87.CXCR4+
Method: Intracellular calcium mobilization induced by chemokines or chemokine-derived peptides were evaluated using a calcium responsive fluorescent probe and a FLIPR system. The CXCR-4 transfected U87 cell line (U87.CXCR4) cells were seeded in gelatine-coated black-wall 96-well plates at 20,000 cells per well and incubated for 12 hours. Cells were then loaded with the fluorescent calcium probe Fluo-2 acetoxymethyl at 4 μM final concentration in assay buffer (Hanks' balanced salt solution with 20 mM HEPES buffer and 0.2% bovine serum albumin, pH 7.4) for 45 min at 37° C. The intracellular calcium mobilization induced by the CXCL-12 (25-50 ng/ml) was then measured at 37° C. by monitoring the fluorescence as a function of time in all the wells simultaneously using a fluorometric imaging plate reader (FLIPR Tetra, Molecular Devices).

BTK = BTK (Homo sapiens, UniProt Q06187); assay: BTK Kinase Enzyme System with ADP-Glo Kinase Assay; format: biochemical; set-up: Recombinant full-length human BTK was expressed by baculovirus in Sf9 insect cells; His (N); purchased Promega V9071; host or cells: Sf9 insect cells (baculovirus); conditions: 50 μM ATP
Method: Inhibition of BTK activity was evaluated using the BTK Kinase Enzyme System in combination with the ADP-Glo™ Kinase Assay Kit (V9071, Promega), according to manufacturer's instructions. Luminescence was detected on a PerkinElmer EnVision Multimode Plate Reader.
Recombinant full-length human BTK was expressed by baculovirus in Sf9 insect cells using an N-terminal His tag, MW ˜78 kDa. Substrate solution contained Poly (4:1 Glu, Tyr) Peptide Substrate. BTK Kinase Buffer consisted of: 40 mM Tris, pH 7.5; 20 mM MgCl2; 0.1 mg/ml BSA; 2 mM MnCl2; 50 μM DTT. ADP-Glo™ Reagents were thawed at ambient temperature; components of BTK Enzyme System, ADP and ATP were thawed on ice. Final assay conditions used 3 ng BTK, 50 μM ATP, and 0.2 mg/mL substrate. Compounds were tested at 11 dose points in duplicates, in 3-fold dilution with top concentration at 10 μM.
Assay performance was evaluated according to the reference compound Staurosporine, which was within 3-5 fold of published results and between different tests, with a Z′ value larger than 0.5, where applicable.

Ramos cell line = Ramos cell line viability assay (CellTiter-Glo, 72 hr); format: cell-based; conditions: Homo sapiens
Method: Inhibition of non-Hodgkin lymphoma B-cell proliferation by compounds of the present invention was evaluated in a Ramos cell line. Ramos is a B lymphocyte cell line that was derived from a patient with Burkitt's Lymphoma.
Cell viability was analyzed with the CellTiter-Glo® Luminescent Cell Viability Assay Kit (G7572, Promega), according to the manufacturer's instruction. Cells were seeded into a 96-well/384-well plate and then incubated in 5% CO2 at 37° C. overnight. Compounds were added to the cells, with 9-10 dose points in duplicates in 3-fold dilution from a top concentration of 30 μM, and incubated in 5% CO2 at 37° C. for 72 hr. The 96-well/384-well plate was equilibrated at room temperature for 30 min. 50 μl/25 μl of CellTiter-Glo® Reagent was added to each well and mixed for 2 min on an orbital shaker to induce cell lysis. The 96-well/384-well plate was incubated at room temperature for 10 min to stabilize luminescent signal. Luminescence was detected on a PerkinElmer EnVision Multimode Plate Reader as relative luminescence units (RLU).

[4] = class, read-out: Ramos viability IC50

T1 sequence (P61073 whole entry): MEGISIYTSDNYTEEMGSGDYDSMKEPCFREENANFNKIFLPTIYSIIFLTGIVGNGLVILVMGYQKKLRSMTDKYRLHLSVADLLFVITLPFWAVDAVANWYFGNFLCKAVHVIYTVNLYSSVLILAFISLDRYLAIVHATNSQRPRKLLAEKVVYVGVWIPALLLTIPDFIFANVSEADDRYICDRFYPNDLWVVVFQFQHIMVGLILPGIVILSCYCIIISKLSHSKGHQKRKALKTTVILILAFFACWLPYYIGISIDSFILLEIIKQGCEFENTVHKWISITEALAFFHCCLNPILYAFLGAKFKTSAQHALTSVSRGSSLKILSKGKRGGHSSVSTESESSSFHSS
T2 sequence (Q06187 whole entry): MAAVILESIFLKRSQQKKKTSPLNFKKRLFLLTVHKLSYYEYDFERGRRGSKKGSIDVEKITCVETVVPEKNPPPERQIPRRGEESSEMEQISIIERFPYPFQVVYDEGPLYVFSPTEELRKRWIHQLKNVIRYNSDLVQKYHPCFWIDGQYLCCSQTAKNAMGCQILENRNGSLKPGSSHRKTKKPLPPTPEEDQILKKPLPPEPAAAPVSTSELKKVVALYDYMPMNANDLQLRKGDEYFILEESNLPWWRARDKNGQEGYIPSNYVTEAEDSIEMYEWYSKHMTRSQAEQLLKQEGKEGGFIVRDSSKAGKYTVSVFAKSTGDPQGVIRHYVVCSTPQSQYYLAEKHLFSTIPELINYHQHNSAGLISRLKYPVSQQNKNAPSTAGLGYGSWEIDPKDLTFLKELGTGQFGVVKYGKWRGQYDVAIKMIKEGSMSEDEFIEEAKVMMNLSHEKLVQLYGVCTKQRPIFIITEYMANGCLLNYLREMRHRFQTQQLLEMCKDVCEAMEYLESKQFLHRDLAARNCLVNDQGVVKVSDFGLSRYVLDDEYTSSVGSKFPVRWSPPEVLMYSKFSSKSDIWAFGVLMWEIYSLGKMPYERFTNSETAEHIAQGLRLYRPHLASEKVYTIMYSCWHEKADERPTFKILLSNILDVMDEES
Sequence of BTK (Q06187 whole entry): as above

Row | SMILES | IC50 (CXCR4 [1]) [nM] | IC50 [2] [nM] | IC50 (CXCR4 [3]) [nM] | IC50 (BTK) [nM] | IC50 (Ramos cell line; [4]) [nM] | IC50 (Ramos cell line; read-out: IC50) [nM]
1 | Cc1cc(-c2ncnc3[nH]c(C(=O)N(C)CCCN4[C@@H](c5ncccc5C)CCC[C@H]4c4ncccc4C)cc23)ccc1CNC(=O)c1ccc(C(C)(C)C)cc1 [Compound I-5] | 100 to 1000 | 100 to 1000 | > 2500 | 100 to 1000 |  | 
2 | Cc1cc(-c2ncnc3[nH]c(C(=O)NCCN4[C@@H](c5ncccc5C)CCC[C@H]4c4ncccc4C)cc23)ccc1CNC(=O)c1ccc(C(C)(C)C)cc1 [Compound I-3] | 100 to 1000 | 1 to 100 | > 2500 | 1 to 100 |  | 
3 | Cc1cccnc1[C@H]1CCC[C@@H](c2ncccc2C)N1CCCCNC[C@@H]1CC[C@@H](Nc2ncnc3[nH]cc(C(=O)c4ccc(Oc5ccccc5)cc4Cl)c23)CO1 [Compound I-13, (4-((3R,6S)-6-((4-((2R,6S)-2,6-bis(3-methylpyridin-2-yl)piperidin-1-yl)butylamino)methyl)tetrahydro-2H-pyran-3-ylamino)-7H-pyrrolo[2,3-d]pyrimidin-5-yl) (2-chloro-4-phenoxyphenyl) methanone] | 100 to 1000 | 100 to 1000 | > 2500 | 100 to 1000 |  | 
4 | Cc1cccnc1[C@H]1CCC[C@@H](c2ncccc2C)N1CCCCNC(=O)c1cc2c(-c3ccc(CNC(=O)c4ccc(C(C)(C)C)cc4)cc3)ncnc2[nH]1 [Compound I-1] | 1 to 100 | 100 to 1000 | > 2500 | 100 to 1000 |  | 
5 | Cc1cccnc1[C@H]1CCC[C@@H](c2ncccc2C)N1CCNC(=O)[C@@H]1CC[C@@H](Nc2ncnc3[nH]cc(C(=O)c4ccc(Oc5ccccc5)cc4Cl)c23)CO1 [Compound I-17] | 1000 to 2500 | 1 to 100 | > 2500 | 1 to 100 |  | 
6 | Cc1cccnc1[C@H]1CCC[C@@H](c2ncccc2C)N1CCNC1CN(C(=O)c2ccc(-c3cc4c(-c5cccc(NC(=O)c6ccccc6)c5C)ncnc4[nH]3)cc2)C1 [Compound I-9] | 1 to 100 | 100 to 1000 | 1 to 100 | 100 to 1000 | 2000 to 4000 | 3540
7 | Cc1cccnc1[C@H]1CCC[C@@H](c2ncccc2C)N1CCN1CCN(C(=O)c2ccc(-c3cc4c(-c5cccc(NC(=O)c6ccc(C(C)(C)C)cc6)c5C)ncnc4[nH]3)cc2)CC1 [Compound I-7] | 100 to 1000 | 1 to 100 | > 2500 | 1 to 100 | 1500 to 2000 | 1620
8 | Cc1cc(-c2ncnc3[nH]c(C(=O)NCCCN4[C@@H](c5ncccc5C)CCC[C@H]4c4ncccc4C)cc23)ccc1CNC(=O)c1ccc(C(C)(C)C)cc1 [Compound I-4] | 1 to 100 | 1 to 100 | > 2500 | 1 to 100 |  | 
9 | Cc1cccnc1[C@H]1CCC[C@@H](c2ncccc2C)N1CCNC[C@@H]1CC[C@@H](Nc2ncnc3[nH]cc(C(=O)c4ccc(Oc5ccccc5)cc4Cl)c23)CO1 [Compound I-15, (4-((3R,6S)-6-((2-((2R,6S)-2,6-bis(3-methylpyridin-2-yl)piperidin-1-yl)ethylamino)methyl)tetrahydro-2H-pyran-3-ylamino)-7H-pyrrolo[2,3-d]pyrimidin-5-yl) (2-chloro-4-phenoxyphenyl) methanone] | 1000 to 2500 | 1000 to 2500 | > 2500 | 1000 to 2500 |  | 
10 | Cc1cc(-c2ccnc(Nc3cnn(CCCN4[C@@H](c5ncccc5C)CCC[C@H]4c4ncccc4C)c3)n2)ccc1CNC(=O)N1CC(OC(C)C)C1 [Compound I-12, N-(4-(2-(1-(3-((2S,6R)-2,6-bis(3-methylpyridin-2-yl)piperidin-1-yl)propyl)-1H-pyrazol-4-ylamino)pyrimidin-4-yl)-2-methylbenzyl)-3-isopropoxyazetidine-1-carboxamide] | 1 to 100 | 1 to 100 | 1000 to 2500 | 1 to 100 | 2000 to 4000 | 2780
11 | Cc1cccnc1[C@H]1CCC[C@@H](c2ncccc2C)N1CCNC1CN(C(=O)c2ccc(-c3cc4c(-c5cccc(NC(=O)c6ccc(C(C)(C)C)cc6)c5C)ncnc4[nH]3)cc2)C1 [Compound I-8] | 1 to 100 | 1 to 100 | 100 to 1000 | 1 to 100 | ≥ 4000 | 11100
12 | Cc1cccnc1[C@H]1CCC[C@@H](c2ncccc2C)N1CCCCN(C)C(=O)c1cc2c(-c3ccc(CNC(=O)c4ccc(C(C)(C)C)cc4)cc3)ncnc2[nH]1 [Compound I-2] | 1 to 100 | 1000 to 2500 | > 2500 | 1000 to 2500 |  | 
13 | Cc1cc(-c2ncnc3[nH]c(C(=O)NCCCCN4[C@@H](c5ncccc5C)CCC[C@H]4c4ncccc4C)cc23)ccc1CNC(=O)c1ccc(C(C)(C)C)cc1 [Compound I-6] | 1 to 100 | 1 to 100 | > 2500 | 1 to 100 | 1500 to 2000 | 1550
14 | Cc1cccnc1[C@H]1CCC[C@@H](c2ncccc2C)N1CCCCOC(=O)[C@@H]1CC[C@@H](Nc2ncnc3[nH]cc(C(=O)c4ccc(Oc5ccccc5)cc4Cl)c23)CO1 [Compound I-14] | > 2500 | 1 to 100 | > 2500 | 1 to 100 |  | 
